The values that follow come from article PMC10687260, “1,3-Diphenylureido hydroxamate as a promising scaffold for generation of potent antimalarial histone deacetylase inhibitors” (Scientific Reports, 2023).

The test system of one assay is acetylated histone H3. Put plainly: Western blot of acetylated histone H3 in infected erythrocytes. To be noted: 10 × IC50 for 4 h, trophozoites, vs DMSO. The class given is cell-based, Plasmodium falciparum. The procedure:
Figure 5 Hydroxamic acid derivatives as potent in vitro PfHDAC1 inhibitors. […]. Enzyme activity was calculated by normalizing the data against the DMSO treated samples and discounting the background. Data are presented as shown above, with mean ± S.D. (n = 2). […]. Comparison of group/concentration against the DMSO control is represented as † for P < 0.0001. […]. Numbers on side of the bands represent the predicted mass (kDa) for each protein. (C,D) Band quantification of histone H3 (C) and H4 (D), respectively, normalizing their acetylated detection against their unmodified version. Differences to this value were analyzed by one way ANOVA using the Dunnett’s post correction, comparing each group against the DMSO control, as rank tests where P values are explicitly depicted.
Western Blot analysis. […]. Proteins were transferred to PVDF membranes, 5% non-fat dry milk in TBS with Tween 20 (0.1%) was used as blocking agent for 1 h at room temperature. After, incubated with the antibodies overnight at 4 °C (Acetyl Histone H3 Lys9 C5B11 Cell Signaling, Acetyl Histone H4 Lys16 E2B8W Cell Signaling, Histone H3 96C10 Cell Signaling and Histone H4 D2X4V Cell Signaling). For the analysis of protein acetylation levels, the membranes were stripped and re-probed with the corresponding anti-total protein. Mouse monoclonal anti-α-Tubulin (B512 Sigma-Aldrich) was used as loading control. Detection was performed by enhanced chemiluminescence using horseradish peroxidase-conjugated secondary antibodies (Vector Laboratories, Burlingame, CA, USA) and SuperSignal TM West Pico PLUS Chemiluminescent substrate kit (Thermo Scientific). Images were acquired using ChemiDoc TM Imaging System (BioRad Laboratories, CA, USA). Quantitative densitometry was carried out using ImageLab software (Bio-Rad Laboratories, CA, USA). The volume density of the chemiluminescent bands was calculated as an integrated optical density × mm^2 after background correction from each independent experiment (N = 3).

The test system of the next assay is Jurkat. Set-up: method as in PMID 33668008. Particulars: Fig. 1A; cited from earlier work.
Another assay concerns Namalwa. Set-up: method as in PMID 33668008. To be noted: Fig. 1A; cited from earlier work.
In another assay the test system is P. falciparum Dd2. Briefly: Antiplasmodial SYBR Green I proliferation assay, P. falciparum Dd2. The class given is cell-based. Particulars: Plasmodium falciparum, DD2; multidrug/CQ-resistant strain; read-out: IC50 P. falciparum Dd2. From the text: Antiplasmodial activity against P. falciparum 3D7 (A, C and E) and P. falciparum Dd2 (B, D, F). […] Curves were plotted using non-linear regression based on means from three independent experiments measured in triplicate. Error bars indicate standard deviation, whose values are provided in the respective table.
Plasmodium falciparum culture and antiplasmodial activity. […] Development, parasitaemia, and morphology of parasites were monitored by light microscopy of thin blood smears stained according to the Romanowsky method (Panótico Rápido staining kit; Laborclin, Pinhais, Paraná, Brazil). […] Fresh 0^+ blood was generously provided by “Hospital Novo Atibaia” (Atibaia, SP, Brazil), and approved by the ethics committee at ICB-USP. The antiplasmodial effect of all compounds was validated against P. falciparum 3D7 strain conducting SYBR Green I (Invitrogen) drug assays as previously reported[30],[46] as a modification of the original procedure. […] Parasite proliferation was measured by the DNA load via fluorescence, using 100 μL of a lysis buffer with SYBR Green I (0.02% v/v) and incubated for 1 h at room temperature in the dark. […] Focal and gain adjustment was performed using the non-treated controls (highest expected fluorescence signal). Data was acquired via the CLARIOstar (V5.20) and MARS software, manually scaled to 0–100%, and plotted using GraphPad Prism (v9.5.2 for Windows, GraphPad Software, La Jolla California USA, www.graphpad.com). Non-treated parasites, the highest solvent concentration on parasites, CQ on parasites, and the highest drug concentration in the medium were used as controls for maximal growth, solvent control, positive biological control, and native drug fluorescence, respectively.

Molecules are shown by their SMILES.

`COc1ccc(NC(=O)Nc2ccc(CCC(=O)NO)cc2)cc1` [Compound 7c, N-hydroxy-3-(4-(3-(4-methoxyphenyl)ureido)phenyl)propanamide]: in the assay on acetylated histone H3, the “Acetylated-H3 level (normalised to unmodified H3)” value is “two-fold increase”.

Consider `O=C(Nc1ccccc1)Nc1ccc(C(=O)NO)cc1` [Compound 8a, N-hydroxy-4-(3-phenylureido)bezamide], for which the IC50 with Jurkat was 2.5 µM; in the assay on Namalwa it was 0.53 µM.

Regarding `COc1ccc(NC(=O)Nc2ccc(C(=O)NO)cc2)cc1` [Compound 8c, N-hydroxy-4-(3–4(-methoxyphenyl)ureido)benzamide], the IC50 with P. falciparum Dd2 turned out to be 0.8 µM. In addition, in the assay with acetylated histone H3, the “Acetylated-H3 level (normalised to unmodified H3)” value was “two-fold increase”.
